Reference: article PMC8560763, “Roles of metal ions in the selective inhibition of oncogenic variants of isocitrate dehydrogenase 1” (Communications Biology, 2021)
“And” between values parts separate entries of the source, which are not always exact repeats. Identical values can stand only once.

Key:
[1] = target: T1, wt IDH1 (Homo sapiens, UniProt O75874); test: Absorbance assay: kinetics of reductive reaction (2OG to isocitrate) by wt IDH1; format: biochemical
T1 construct: made in house; host or cells: Escherichia coli BL21(DE3) pLyS
Experimental: (§1) All experiments were performed in (at least) triplicate.
(§2) KM values were determined by varying concentrations of the substrate/cofactor under investigation while maintaining the concentrations of other components using standard conditions. […] Graphs were fitted using GraphPad Prism to obtain kinetic parameters.

[2] = target: T1, wt IDH1; test: Differential scanning fluorimetry (DSF) thermal shift, wt IDH1; format: binding; settings: 50 mM Tris-HCl, pH 7.5; for thermal stabilisation by cosubstrates: wt IDH1, 0.125—4 mM; for thermal stabilisation (shift in Tm): wt IDH1, divalent metal ions (5 mM)
Experimental: Thermal shift experiments were carried out using Sypro Orange dye and a CFX96 Touch^TM Real-Time PCR Detection System (Bio-Rad)[69]. […] The standard assay buffer contains 50 mM Tris-HCl at pH 7.5. Various concentrations of substrates were mixed with IDH1 for thermal stabilisation studies. […] Bio-Rad CFX Manager was used to determine the melting temperature, Tm.

[3] = target: T1, wt IDH1; test: 1H NMR reaction monitoring, wt IDH1; format: biochemical; settings: 1H NMR (700 MHz), NADP+, 10 mM MgCl2
Experimental: Reaction monitoring employed the same spectrometer with a 5-mm inverse TCI cryoprobe using 5 mm tubes (Norell). Data were recorded with a relaxation delay of 2 s and 32 scans, employing a pulse sequence with water suppression (^1H excitation sculpting suppression with perfect echo using a 2 ms Sinc selective inversion pulse).

[4] = target: T1, wt IDH1; test: Absorbance assay: effect of metal ions on catalysis and inhibition of wt IDH1; format: biochemical; settings: for inhibition by metal ion: wt IDH1, metal ions 10 mM in the presence of 10 mM Mg^2+
Experimental: Inhibition assays of wt or R132H IDH1 with metal ions were conducted with a 12 min pre-incubation of metal ions (25 µL, final concentration 10 mM) and enzyme (25 µL) before the addition of substrate (25 µL) and cofactor (25 µL). […] The difference in absorbance, ΔA340, in the linear range of the reaction profile was converted to % residual activity with the DMSO control being the 100% residual activity reference.

[5] = target: T1, wt IDH1; test: CPMG-edited 1H NMR ligand binding, wt IDH1; settings: for binding to wt IDH1 / displacement of D-isocitrate from wt IDH1: without metal ions; for binding to wt IDH1: DSF and NMR; for weakening of D-isocitrate binding to wt IDH1: with Mg^2+ or Ca^2+ (10 mM); for displacement of D-isocitrate from wt IDH1: inhibitor 50 µM, D-isocitrate 50 µM, wt IDH1 6.25 µM
Experimental: Additional solvent presaturation was applied for 2 s. The assay mixture contains 160 µL of a 50 µM solution of the compound of interest ± 10 mM metal chloride salts in 50 mM Tris-D11-HCl in 90% H2O/10% D2O at pH 7.5. […] Data were processed with the TopSpin 3.1 software.

[6] = target: T1, wt IDH1; test: Absorbance assay (NADPH, 340 nm): kinetics of oxidative reaction (isocitrate to 2OG) by wt IDH1; format: biochemical
Experimental: as §1, §2

[7] = target: T1, wt IDH1; test: Non-denaturing protein MS, wt IDH1; format: binding; settings: wt IDH1 dimer with two NADPHs bound
Experimental: Non-denaturing mass spectra were obtained using a quadrupole time-of-flight mass spectrometer (Synapt HD MS, Waters, Wilmslow, Manchester, UK)[71],[72]. […] Protein concentrations were measured using a Nanodrop spectrometer (Thermo Scientific™ NanoDrop™ One). […] The solution was then sprayed through a nozzle in a Nanomate chip at a spray voltage of 1.8–2.0 kV (spray backing gas pressure 0.8–1.0 psi, inlet pressure 3.8 mbar). […] For promoting collision-induced dissociation of the substrate from its complex with IDH1, a higher cone voltage (200 V) was used. The rest of the voltages and pressures in the mass spectrometer were adjusted for the best resolution and minimum fragmentation. Data collection and analysis were carried out using the Waters MassLynx software. Mass spectra were calibrated externally using the CsI solution to produce CsI cluster ions.

[8] = wt IDH1, oxidative reaction with Mn^2+ (10 mM MnCl2)
[9] = wt IDH1, reductive reaction (2OG to isocitrate) with Mg^2+, 100 mM NaHCO3

T1 sequence (O75874 2-414): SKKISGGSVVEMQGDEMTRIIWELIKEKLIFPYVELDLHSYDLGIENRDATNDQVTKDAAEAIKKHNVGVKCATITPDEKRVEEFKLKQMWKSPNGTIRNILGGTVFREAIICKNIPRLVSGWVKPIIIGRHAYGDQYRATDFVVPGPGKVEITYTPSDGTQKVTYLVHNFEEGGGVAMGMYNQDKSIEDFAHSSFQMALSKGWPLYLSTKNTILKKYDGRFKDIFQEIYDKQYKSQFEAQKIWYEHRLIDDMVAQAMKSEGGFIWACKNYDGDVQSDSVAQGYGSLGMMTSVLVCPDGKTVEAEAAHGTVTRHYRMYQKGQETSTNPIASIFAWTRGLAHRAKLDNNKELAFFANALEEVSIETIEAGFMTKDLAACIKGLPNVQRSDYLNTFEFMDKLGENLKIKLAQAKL

NC(=O)C1=CN([C@@H]2O[C@H](COP(=O)(O)OP(=O)(O)OC[C@H]3O[C@@H](n4cnc5c(N)ncnc54)[C@H](OP(=O)(O)O)[C@@H]3O)[C@@H](O)[C@H]2O)C=CC1 [NADPH]
Velocity ([1]; Fig. S2f, [NADPH] 31.25 μM): 0.06247 µM/s and 0.06738 µM/s and 0.04685 µM/s | Velocity ([1]; Fig. S2f, [NADPH] 62.5 μM): 0.08774 µM/s and 0.07774 µM/s and 0.04633 µM/s | Velocity ([1]; Fig. S2f, [NADPH] 250 μM): 0.1446 µM/s and 0.1585 µM/s and 0.1383 µM/s | Velocity ([1]; Fig. S2f, [NADPH] 500 μM): 0.1648 µM/s and 0.2053 µM/s | thermal stabilisation by cosubstrates [2]: stabilise

O=C(O)C[C@H](C(=O)O)[C@@H](O)C(=O)O [L-isocitrate]
conversion by wt IDH1 [3]: neither a substrate nor an inhibitor

[Ba+2].[Cl-].[Cl-] [Ba^2+, BaCl2]
inhibition by metal ion [4]: inhibiting

[Ca+2].[Cl-].[Cl-] [Ca^2+, CaCl2]
thermal stabilisation (shift in Tm) [2]: 3.2 °C | inhibition by metal ion [4]: inhibiting

O=C(O)CNC(=O)C(=O)O [NOG, N-oxalylglycine]
binding to wt IDH1 [5]: bind weakly

[Cl-].[Li+] [Li^+]
inhibition by metal ion [4]: no effect

O=C(O)CC(C(=O)O)C(O)C(=O)O (racemic) [DL-isocitrate]
Km ([6]; wt IDH1, oxidative reaction with Mg^2+ (10 mM MgCl2)): 38 ± 6 µM | Km [6, 8]: 35 ± 4 µM

[Cl-].[K+] [K^+]
inhibition by metal ion [4]: no effect

O=C(O)CCC(=O)C(=O)O [2OG, 2-oxoglutarate]
binding to wt IDH1 [5]: bind weakly | Velocity ([1]; Fig. S2e, [2OG] 312.5 μM): 0.04369 µM/s and 0.04159 µM/s and 0.04334 µM/s | Velocity ([1]; Fig. S2e, [2OG] 625 μM): 0.08493 µM/s and 0.08598 µM/s and 0.07405 µM/s | Velocity ([1]; Fig. S2e, [2OG] 2500 μM): 0.1446 µM/s and 0.1407 µM/s and 0.1265 µM/s | Velocity ([1]; Fig. S2e, [2OG] 5000 μM): 0.1734 µM/s and 0.1435 µM/s and 0.1563 µM/s | Velocity ([1]; Fig. S2e, [2OG] 10000 μM): 0.2051 µM/s and 0.2078 µM/s and 0.1434 µM/s | Km [1, 9]: 1100 µM | Vmax [1, 9]: 200 ± 16 nM/s

[Cl][Cd][Cl] [Cd^2+, CdCl2]
inhibition by metal ion [4]: inhibitory

O=C(O)CCC(O)C(=O)O (stereo not shown) [2HG, 2-hydroxyglutarate]
binding to wt IDH1 [5]: not observed to bind

N#Cc1ccnc(N2C(=O)CC[C@H]2C(=O)N(c2cncc(F)c2)[C@H](C(=O)NC2CC(F)(F)C2)c2ccccc2Cl)c1 [AG-120, Ivosidenib]
weakening of D-isocitrate binding to wt IDH1 [5]: not | displacement of D-isocitrate from wt IDH1 [5]: partially displaced | binding stoichiometry [7]: one inhibitor per IDH1 dimer

NC(=O)c1ccc[n+](C2OC(COP(=O)(O)OP(=O)([O-])OCC3OC(n4cnc5c(N)ncnc54)C(OP(=O)(O)O)C3O)C(O)C2O)c1 (stereo not shown) [NADP^+]
thermal stabilisation by cosubstrates [2]: stabilise | Velocity ([6]; Fig. S2b, [NADP+] 9.375 μM): 0.05756 µM/s and 0.05177 µM/s and 0.06247 µM/s | Velocity ([6]; Fig. S2b, [NADP+] 18.75 μM): 0.1158 µM/s and 0.09809 µM/s and 0.09195 µM/s | Velocity ([6]; Fig. S2b, [NADP+] 37.5 μM): 0.1572 µM/s and 0.1441 µM/s and 0.152 µM/s | Velocity ([6]; Fig. S2b, [NADP+] 75 μM): 0.1869 µM/s and 0.1658 µM/s and 0.2058 µM/s | Velocity ([6]; Fig. S2b, [NADP+] 150 μM): 0.2085 µM/s and 0.1992 µM/s and 0.219 µM/s | Velocity ([6]; Fig. S2b, [NADP+] 300 μM): 0.2511 µM/s and 0.2272 µM/s and 0.239 µM/s | Velocity ([6]; Fig. S2b, [NADP+] 600 μM): 0.245 µM/s and 0.2229 µM/s and 0.192 µM/s | Velocity ([6]; Fig. S2b, [NADP+] 1200 μM): 0.2522 µM/s and 0.2318 µM/s and 0.2402 µM/s | Velocity ([6]; Fig. S2b, [NADP+] 2400 μM): 0.2325 µM/s and 0.2464 µM/s and 0.2378 µM/s | Velocity ([6]; Fig. S3b, MnCl2 as metal, [NADP+] 2.34375 μM): 0.01474 µM/s and 0.01079 µM/s and 0.008423 µM/s | Velocity ([6]; Fig. S3b, MnCl2 as metal, [NADP+] 4.6875 μM): 0.04185 µM/s and 0.03843 µM/s and 0.02737 µM/s | Velocity ([6]; Fig. S3b, MnCl2 as metal, [NADP+] 9.375 μM): 0.08765 µM/s and 0.07107 µM/s and 0.0637 µM/s | Velocity ([6]; Fig. S3b, MnCl2 as metal, [NADP+] 18.75 μM): 0.1629 µM/s and 0.1316 µM/s and 0.1234 µM/s | Velocity ([6]; Fig. S3b, MnCl2 as metal, [NADP+] 37.5 μM): 0.2419 µM/s and 0.1971 µM/s and 0.1732 µM/s | Velocity ([6]; Fig. S3b, MnCl2 as metal, [NADP+] 75 μM): 0.3032 µM/s and 0.278 µM/s and 0.2851 µM/s | Velocity ([6]; Fig. S3b, MnCl2 as metal, [NADP+] 150 μM): 0.3353 µM/s and 0.3245 µM/s and 0.3419 µM/s | Velocity ([6]; Fig. S3b, MnCl2 as metal, [NADP+] 300 μM): 0.3651 µM/s

[Cl-].[Cs+] [Cs^+]
inhibition by metal ion [4]: no effect

[Cl][Ni][Cl] [Ni^2+, NiCl2]
inhibition by metal ion [4]: inhibitory

COc1c(C)cc(NC(=O)c2nn(Cc3ccc(F)cc3)c3c2CN(C(=O)c2ccc[nH]2)C[C@]3(C)C(N)=O)cc1C [GSK864]
weakening of D-isocitrate binding to wt IDH1 [5]: not | displacement of D-isocitrate from wt IDH1 [5]: partially displaced | binding stoichiometry [7]: two inhibitors per IDH1 dimer

[Cl][Mn][Cl] [MnCl2]
thermal stabilisation (shift in Tm) [2]: 2.9 °C | Velocity ([6]; Fig. S3c, [MnCl2] 1.16415 μM): 0.08423 µM/s and 0.08186 µM/s and 0.1169 µM/s | Velocity ([6]; Fig. S3c, [MnCl2] 1.86265 μM): 0.2269 µM/s and 0.1979 µM/s and 0.204 µM/s | Velocity ([6]; Fig. S3c, [MnCl2] 4.76837 μM): 0.3206 µM/s and 0.2772 µM/s and 0.338 µM/s | Velocity ([6]; Fig. S3c, [MnCl2] 7.62939 μM): 0.3506 µM/s and 0.2861 µM/s and 0.3632 µM/s | Velocity ([6]; Fig. S3c, [MnCl2] 12.207 μM): 0.3785 µM/s and 0.3498 µM/s | Velocity ([6]; Fig. S3c, [MnCl2] 19.5312 μM): 0.3561 µM/s and 0.3846 µM/s | Velocity ([6]; Fig. S3c, [MnCl2] 31.25 μM): 0.3922 µM/s and 0.3424 µM/s and 0.3875 µM/s | Velocity ([6]; Fig. S3c, [MnCl2] 50 μM): 0.4096 µM/s and 0.3893 µM/s and 0.3938 µM/s | kcat ([6]; wt IDH1, oxidative reaction with Mn^2+): 81 ± 11 s⁻¹ | Km [6, 8]: 2 ± 0.3 µM | Vmax [6, 8]: 416 ± 13 nM/s | effect of metal ion on catalysis ([4]; wt IDH1, metal ions 10 mM): promoted

[Cl-].[Cl-].[Co+2] [Co^2+, CoCl2]
inhibition by metal ion [4]: inhibitory

[Na+] [Na^+]
inhibition by metal ion [4]: no effect

[Cl-].[Cl-].[Zn+2] [Zn^2+, ZnCl2]
inhibition by metal ion [4]: inhibitory

[Cl-].[Cl-].[Sr+2] [Sr^2+, SrCl2]
inhibition by metal ion [4]: inhibiting
